The results in this text go back to ChEMBL document CHEMBL1140229, “Flavanones from the stem bark of Erythrina abyssinica” (Bioorg Med Chem, 2008).

SMILES strings stand for the structures. Activity calls are given as the source filed them. The rule behind the calls is not given here. Some results are limits rather than exact numbers.

The first assay deals with T1, Tyrosine-protein phosphatase non-receptor type 1 (Homo sapiens) (UniProt P18031).
T1 sequence (whole entry): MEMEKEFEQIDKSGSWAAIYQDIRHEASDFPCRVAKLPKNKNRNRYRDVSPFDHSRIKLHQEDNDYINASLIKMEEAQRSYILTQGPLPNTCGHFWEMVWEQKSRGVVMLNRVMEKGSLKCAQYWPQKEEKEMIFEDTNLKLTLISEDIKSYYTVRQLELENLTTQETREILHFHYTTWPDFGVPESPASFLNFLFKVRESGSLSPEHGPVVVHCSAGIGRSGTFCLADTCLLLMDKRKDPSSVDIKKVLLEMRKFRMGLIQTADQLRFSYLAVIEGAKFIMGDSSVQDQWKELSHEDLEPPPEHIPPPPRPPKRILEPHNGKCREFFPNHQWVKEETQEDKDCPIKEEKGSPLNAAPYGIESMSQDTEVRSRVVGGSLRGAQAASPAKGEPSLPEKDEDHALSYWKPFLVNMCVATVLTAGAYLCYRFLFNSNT
The assay is described as follows: (§1) Inhibition of human recombinant PTP1B.
As to `O=C1C[C@@H](c2ccc(O)cc2)Oc2cc(O)cc(O)c21`, the result was inactive. For `O=C1C[C@@H](c2ccc(O)cc2)Oc2cc(O)ccc21`, the outcome was inactive.

For the next assay, the target named is T2, Tyrosine-protein phosphatase non-receptor type 1 (Homo sapiens, UniProt P18031).
T2 sequence (P18031 whole entry): T1 sequence (whole entry)
The assay is described as §1.
A word on the IC50: it is the concentration needed to halve the response being measured. Turning to `COc1cc([C@@H]2CC(=O)c3c(O)cc(O)cc3O2)cc2c1OC(C)(C)C(O)C2` (some centres undefined), the IC50 amounted to 18.2 µM. For the molecule `CC1(C)Oc2c(O)cc([C@@H]3CC(=O)c4c(O)cc(O)cc4O3)cc2C[C@@H]1O` [SIGMOIDIN D], the IC50 is above 60 µM.

With `CC1(C)C=Cc2cc([C@@H]3CC(=O)c4c(O)cc(O)cc4O3)c3c(c2O1)OC(C)(C)C=C3`, the IC50 was above 60 µM.

With `CCCCCCCCCCCCCCCC(=O)C1=C(O)[C@@H](CO)OC1=O`, the IC50 turned out to be 4.7 µM. In the case of `CC1(CO)C=Cc2cc([C@@H]3CC(=O)c4c(O)cc(O)cc4O3)cc(O)c2O1` (some centres undefined), the IC50 was above 60 µM. As for `CC(C)=CCc1cc([C@@H]2CC(=O)c3c(O)cc(O)cc3O2)cc2c1OC(C)(C)C(O)C2O` (some centres undefined), the IC50 came to 19 µM. As to `CC1(C)CC(=O)c2cc([C@@H]3CC(=O)c4c(O)cc(O)cc4O3)cc(O)c2O1`, the IC50 is above 60 µM. The same measure, in the same setting: the result for `COc1cc([C@@H]2CC(=O)c3c(O)cc(O)cc3O2)cc2c1OC(C)(CO)C=C2` (some centres undefined) reads 17.9 µM; that for `CC1(C)Oc2c(O)cc([C@@H]3CC(=O)c4ccc(O)cc4O3)cc2C(O)C1O` (some centres undefined), above 60 µM. Take `COc1c(/C=C/C(C)(C)O)cc([C@@H]2CC(=O)c3c(O)cc(O)cc3O2)cc1CC=C(C)C` [BURTTINONE]: the IC50 was determined as 18.9 µM. Same read-out and setting: the result for `CC1(C)C(C2CC(=O)c3ccccc3O2)=C(O)C(O)=C2OC(O)C(O)C(O)C21` (centres undefined) [SIGMOIDIN G] reads above 60 µM; that for `CC(C)=CCc1cc([C@@H]2CC(=O)c3c(O)cc(O)cc3O2)cc2c1OC(C)(C)C(O)C2` (some centres undefined), 14.9 µM; that for `C=C(C)/C=C/c1cc([C@@H]2CC(=O)c3c(O)cc(O)cc3O2)cc(CC=C(C)C)c1OC` [BURTTINONEDEHYDRATE], 21.6 µM. For `CC1(C)Oc2c(O)cc([C@@H]3CC(=O)c4ccc(O)cc4O3)cc2CC1O` (some centres undefined), the concentration for half-maximal inhibition (IC50) is above 60 µM. On the same count and under the same terms, next, `CC(C)=CCc1c([C@@H]2CC(=O)c3c(O)cc(O)cc3O2)cc(O)c2c1C=CC(C)(C)O2`: 13.9 µM; `CC(C)=CCc1c([C@@H]2CC(=O)c3c(O)cc(O)cc3O2)cc2c(c1O)OC(C)(C)C(O)C2O` (some centres undefined): 18.2 µM; `CC1(C)Oc2ccc([C@@H]3CC(=O)c4c(O)cc(O)cc4O3)cc2C(O)C1O` (some centres undefined): above 60 µM.
